Assay results from patent publication US9156837B2, “Heterocyclic compound” (Takeda Pharmaceutical Company Limited, priority 2011, dated 2015).

Tests used:
RORγt [1] = biological target: T1, RORγt (Homo sapiens, UniProt P51449); assay: RORγt binding test (TR-FRET, fluorescent-labeled cholesterol); details: test compound 1 μM, histidine-tagged RORγt, read-out: binding inhibitory rate of fluorescent-labeled cholesterol to RORγt
T1 sequence (P51449 1-497 isoform P51449-2): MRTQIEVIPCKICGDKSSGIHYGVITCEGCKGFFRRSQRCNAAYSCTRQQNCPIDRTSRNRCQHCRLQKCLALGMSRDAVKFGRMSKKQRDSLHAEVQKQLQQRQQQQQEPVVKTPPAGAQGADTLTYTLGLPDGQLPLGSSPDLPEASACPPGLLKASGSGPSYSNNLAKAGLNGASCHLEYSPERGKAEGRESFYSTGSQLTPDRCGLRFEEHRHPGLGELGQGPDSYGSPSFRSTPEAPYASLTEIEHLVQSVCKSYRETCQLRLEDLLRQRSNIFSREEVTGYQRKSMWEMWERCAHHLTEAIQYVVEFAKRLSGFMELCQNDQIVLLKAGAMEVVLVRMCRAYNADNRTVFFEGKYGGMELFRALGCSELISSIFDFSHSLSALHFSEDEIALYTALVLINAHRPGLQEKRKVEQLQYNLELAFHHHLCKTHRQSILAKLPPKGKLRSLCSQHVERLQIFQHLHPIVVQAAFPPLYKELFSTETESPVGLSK
Method: The binding activity of the test compound to RORγt was measured by a time resolved fluorescence resonance energy transfer method (TR-FRET) utilizing histidine-tagged RORγt, fluorescent-labeled cholesterol (BODIPY-cholesterol, AVIVA), and terbium-labeled anti-histidine tag antibody (Invitrogen). First, a test compound diluted with an assay buffer (20 mM Tris-HCl (pH 7.5), 100 mM NaCl, 1 mM DTT, 0.1% BSA) was added to a 384 well plate by 3 μL. Then, RORγt diluted with an assay buffer to 240 nM was added by 3 μL, after which fluorescent-labeled cholesterol diluted with the assay buffer to 12 μM was added by 3 μL, and the mixture was stood at room temperature for 20 min. Thereafter, a terbium-labeled anti-histidine tag antibody diluted with the assay buffer to 8 nM was added by 3 μL. The mixture was stood at room temperature for 20 min, and fluorescence intensity (excitation wavelength 320 nm, fluorescence wavelength 520 nm, delay time 100 microseconds) was measured by Envision (PerkinElmer).
The results (binding inhibitory rate of fluorescent-labeled cholesterol to RORγt at test compound 1 μM) measured by the above-mentioned method are shown in Table 2.

RORγt [2] = biological target: T1, RORγt; assay: Cofactor recruitment test (Alpha Screen, biotinylated SRC-1 peptide); format: biochemical; details: test compound 1 μM, RORγt and biotinylated SRC-1 peptide, read-out: signal value inhibitory rate
Method: Cofactor recruitment test was performed by Alpha Screen (Histidine Detection Kit, PerkinElmer) method. First, a test compound was diluted with an assay buffer (50 mM Tris-HCl (pH 7.5), 50 mM KCl, 1 mM DTT, 0.1% BSA) and added to a 384 well plate by 5 μL. Then, RORγt diluted with an assay buffer to 125 nM was added by 10 μL each, after which solutions of 25 nM biotinylated SRC-1 peptide (biotin-[…]), 12.5 μg/mL acceptor beads and 12.5 μg/mL donor beads prepared with the assay buffer were added by 10 μL each. The mixture was stood in a dark place for 1 hr, and the signal value was measured by Envision (PerkinElmer).

RORγt [3] = biological target: T1, RORγt; assay: Jurkat reporter test (human IL-17 ROR response element luciferase); format: cell-based; details: test compound 3 μM; Jurkat cells transfected with IL-17 ROR response element luciferase reporter and RORγt vector; cultured overnight; read-out: luminescence level inhibitory rate
Method: The Jurkat cells used for the reporter test were cultured in a culture medium (RPMI (Invitrogen), 10% FCS (AusGeneX), 100 U/mL penicillin, 100 μg/mL streptomycin). On the day of the test, 4×10^7 cells were recovered by a centrifugal operation (1000 rpm, 5 min.) and suspended in PBS (phosphate buffered saline) (Invitrogen). Thereafter, the cells were recovered again by a centrifugal operation, and suspended in 2 mL of R buffer (NEON transfection kit, Invitrogen). Then, a reporter vector 53 μg wherein a human IL-17 ROR response element was inserted into the upstream of luciferase of pGL 4.28 (Promega), and a vector (27 μg) wherein RORγt sequence was inserted into the downstream of CMV promoter were added to the cell suspension. Gene transfer was performed by Electroporation apparatus (NEON, Invitrogen) under the conditions of pulse voltage 1350 V, interval 10 milliseconds, number of times 3. The cells after gene transfer were suspended in 40 mL of a reaction medium (RPMI, 10% Lipid reduced FCS (HyClone), 10 mM HEPES (pH 7.5), 100 U/mL penicillin, 100 μg/mL streptomycin, 5 μM lovastatin), and plated in a 96 well plate by 90 μL. A test compound diluted with the reaction medium was added by 10 μL, and the cells were cultured overnight in an incubator. Bright-Glo (Promega) was added by 100 μL, and the mixture was stirred at room temperature for 10 min, and the luminescence level was measured by Envision (PerkinElmer).
The results (luminescence level inhibitory rate at test compound 3 μM) measured by the above-mentioned method are shown in Table 4.

[4] = system: CD4 positive naive T cells (differentiation into Th17 cells); assay: Mouse Th17 cell differentiation induction test; format: cell-based; details: 96 h; test compound 10 μM; BALB/c mouse CD4 positive naive T cells; 4 days; ELISA; read-out: inhibitory rate (IL-17A in culture supernatant, Th17 differentiation)
Method: CD4 positive naive T cells were collected from the spleen cells of BALB/c mice (female, 8-11w) using CD4+CD62L+ T Cell Isolation kit II (Miltenyi Biotec). The CD4 positive naive T cells were plated in a 96 well plate (3×10^5 cells/well), stimulated (37° C. for culture) with anti-mouse CD3ε antibody (10 μg/mL, solid phase) and anti-CD28 antibody (5 μg/mL) for 4 days in the presence of anti-IFN-γ antibody, anti-IL-4 antibody, anti-IL-2 antibody, IL-6, TGF-β and IL-23 to allow for differentiation into Th17 cells. The compound was dissolved in DMSO and then added. The cells were cultured under these conditions for 4 days, the concentration of IL-17A in the culture supernatant obtained by centrifugation was measured by ELISA, and differentiation of the Th17 cells was evaluated.

[5] = system: CD4 positive naive T cells (differentiation into Th17 cells); assay: Human Th17 cell differentiation induction test; format: cell-based; details: 144 h, test compound 10 μM, 6 days, ELISA, read-out: inhibitory rate (IL-17A in culture supernatant, Th17 differentiation)
Method: Using peripheral blood mononuclear cells (PBMC) collected from human peripheral blood by a density gradient centrifugation method, CD4 positive naive T cells were collected. The CD4 positive naive T cells were plated in a 96 well plate (2×10^4 cells/well), and stimulated (37° C. for culture) with anti-CD3/28Ab Dynabeads for 6 days in the presence of IL-1β, IL-6, IL-23, TGFβ, anti-IFNγ Ab, anti-IL-4 Ab to allow for differentiation into Th17 cells. The compound was dissolved in DMSO and then added. After culture for 6 days, the concentration of IL-17A in the culture supernatant obtained by centrifugation was measured by ELISA, and differentiation of the Th17 cells was evaluated.

[6] = system: Peripheral blood mononuclear cells (PBMC); assay: Human PBMC IL17 production test; format: cell-based; details: 72 h; test compound 10 μM; human PBMC stimulated by anti-CD3/CD28 Dynabeads; 3 days; ELISA; read-out: inhibitory rate (IL-17A in culture supernatant, IL-17 production)
Method: Peripheral blood mononuclear cells (PBMC) collected from human peripheral blood by a density gradient centrifugation method were stimulated by Dynabeads (registered trade mark; anti-CD3/CD28 antibody) and cultured at 37° C. for 3 days. The compound was dissolved in DMSO and then added. After culture for 3 days under such conditions, the concentration of IL-17A in the culture supernatant obtained by centrifugation was measured by ELISA, and the activity of the compound on IL-17 production was evaluated.

inhibition at 1 µM (RORγt [1])	inhibition at 1 µM (RORγt [2])	inhibition at 3 µM (RORγt [3])	SMILES	inhibition at 10 µM [4]	inhibition at 10 µM [5]	inhibition at 10 µM [6]
98.7%	101%	101%	COc1ccc(-c2c(-c3nc(CC(=O)NCC4CCOCC4)cs3)cnn2C(C)(C)C)cc1 [Example 39, 2-{2-[1-tert-butyl-5-(4-methoxyphenyl)-1H-pyrazol-4-yl]-1,3-thiazol-4-yl}-N-(tetrahydro-2H-pyran-4-ylmethyl)acetamide]	95%	100%	91.3%
98.3%	101%	94.2%	CC(C)(C)n1ncc(-c2nc(CC(=O)NCC3CCOCC3)cs2)c1-c1ccc(C#N)cc1 [Example 43, 2-{2-[1-tert-butyl-5-(4-cyanophenyl)-1H-pyrazol-4-yl]-1,3-thiazol-4-yl}-N-(tetrahydro-2H-pyran-4-ylmethyl)acetamide]	78.6%	–	–
95.3%	78.6%	94.9%	O=C(Cc1csc(-c2cnn(C3CCCCC3)c2-c2ccc(F)cc2)n1)NCC1CCOCC1 [Example 51, 2-{2-[1-cyclohexyl-5-(4-fluorophenyl)-1H-pyrazol-4-yl]-1,3-thiazol-4-yl}-N-(tetrahydro-2H-pyran-4-ylmethyl)acetamide]	86%	–	–
87.3%	98.8%	84.1%	CCCN(Cc1ccccc1)C(=O)Cc1csc(-c2cnn(C(C)(C)C)c2-c2ccc(F)cc2)n1 [Example 97, N-benzyl-2-{2-[1-tert-butyl-5-(4-fluorophenyl)-1H-pyrazol-4-yl]-1,3-thiazol-4-yl}-N-propylacetamide]	95%	–	–

Continued, compound first:

SMILES	inhibition at 1 µM (RORγt [1])	inhibition at 1 µM (RORγt [2])	inhibition at 3 µM (RORγt [3])	inhibition at 10 µM [4]	inhibition at 10 µM [5]	inhibition at 10 µM [6]
CC(C)(C)n1ncc(-c2nc(CC(=O)NCC3CCOCC3)cs2)c1-c1ccc(F)cc1 [Example 14, 2-{2-[1-tert-butyl-5-(4-fluorophenyl)-1H-pyrazol-4-yl]-1,3-thiazol-4-yl}-N-(tetrahydro-2H-pyran-4-ylmethyl)acetamide]	92%	109%	81%	77%	–	–
CN(Cc1ccncc1)C(=O)Cc1csc(-c2cnn(C(C)(C)C)c2-c2ccc(F)cc2)n1 [Example 18, 2-{2-[1-tert-butyl-5-(4-fluorophenyl)-1H-pyrazol-4-yl]-1,3-thiazol-4-yl}-N-methyl-N-(pyridin-4-ylmethyl)acetamide]	96.1%	102%	87.1%	96.3%	–	–
CC(C)(C)n1ncc(-c2nc(CC(=O)NCC3CCOCC3)cs2)c1-c1ccccc1 [Example 41]	94.6%	101%	82.1%	92.6%	–	–
CC(C)(C)n1ncc(-c2nc(CC(=O)NCc3cccnc3)cs2)c1-c1ccc(F)cc1 [Example 79, 2-{2-[1-tert-butyl-5-(4-fluorophenyl)-1H-pyrazol-4-yl]-1,3-thiazol-4-yl}-N-(pyridin-3-ylmethyl)acetamide]	95.4%	99.8%	85.7%	69%	–	–
CC(C)(C)n1ncc(-c2nc(CC(=O)NCC3CCOCC3)cs2)c1-c1ccc(Cl)cc1 [Example 128, 2-{2-[1-tert-butyl-5-(4-chlorophenyl)-1H-pyrazol-4-yl]-1,3-thiazol-4-yl}-N-(tetrahydro-2H-pyran-4-ylmethyl)acetamide]	97.8%	101%	97.1%	97.7%	–	–
CC(C)(C)n1ncc(-c2nc(CC(=O)NCC3CCOCC3)cs2)c1-c1cc2ccccc2s1 [Example 150, 2-{2-[5-(1-benzothiophen-2-yl)-1-tert-butyl-1H-pyrazol-4-yl]-1,3-thiazol-4-yl}-N-(tetrahydro-2H-pyran-4-ylmethyl)acetamide]	98.7%	99.3%	98.4%	97.7%	–	92%
COc1ccc(-c2c(-c3nc(CC(=O)NCC4CCOCC4)cs3)cnn2C(C)(C)C)cc1F [Example 152, 2-{2-[1-tert-butyl-5-(3-fluoro-4-methoxyphenyl)-1H-pyrazol-4-yl]-1,3-thiazol-4-yl}-N-(tetrahydro-2H-pyran-4-ylmethyl)acetamide]	95.9%	95.4%	96%	91.2%	–	92%
CC(C)(C)n1ncc(-c2nc(CC(=O)NCc3ccc(-n4ccnc4)cc3)cs2)c1-c1ccc(F)cc1 [Example 170, 2-{2-[1-tert-butyl-5-(4-fluorophenyl)-1H-pyrazol-4-yl]-1,3-thiazol-4-yl}-N-[4-(1H-imidazol-1-yl)benzyl]acetamide]	86.5%	100%	94.4%	–	–	–
